The subject of data set [1] is VH1-related (VHR) phosphatase. Set-up: method as in Cutshall et al, 2005. Particulars: ref Cutshall et al, 2005; cited from earlier work.
For a further data set, the target named is T1, GST-tagged-DUSP22 (Homo sapiens, UniProt Q9NRW4).
T1 construct: purchased Sigma-Aldrich SRP5021
T1 sequence (Q9NRW4 1-184): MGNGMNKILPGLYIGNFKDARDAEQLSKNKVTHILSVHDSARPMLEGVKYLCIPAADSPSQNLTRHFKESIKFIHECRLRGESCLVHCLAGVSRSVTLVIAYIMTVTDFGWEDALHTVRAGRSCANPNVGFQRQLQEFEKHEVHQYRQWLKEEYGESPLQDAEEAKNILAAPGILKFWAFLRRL
Put plainly: DUSP22 phosphatase activity assay (EnzChek kit, DiFMUP substrate). As to conditions: 45 min at room temperature, read-out: IC50, inhibition of DUSP22 activity. It counts as biochemical. Here is the method: The phosphatase activity of purified DUSP22 was measured using the EnzChek® Phosphatase Assay Kit (E12020, ThermoFisher, MA, USA) following the manufacturer’s instructions. In brief, for the assay a 200 µM 6,8-difluoro-4-methylumbelliferyl phosphate (DiFMUP) working solution was prepared. 50 µL DiFMUP solution was added to each well of a black-walled microplate, followed by a 50 µL sample containing GST-tagged-DUSP22 (SRP5021, Sigma-Aldrich, MO, USA) or 1X reaction buffer, to give a total reaction volume of 100 µL per well. BML-260 and 1X reaction buffer in a 50 µL volume were then added to each well. The microplate was incubated at room temperature for 45 min in the dark and fluorescence was measured at excitation 360 nm and emission 455 nm (SpectraMAX Gemini XS, Molecular Devices, CA, USA).
A) Phosphatase activity assay for DUSP22 and inhibition by BML-260. […] (n=4) B) CB-Dock2 molecular docking analysis of BML-260 binding to the active site of DUSP22, DUSP22 with an active site mutation (at C88S), and DUSP15, which is a DUSP member with the highest homology with DUSP22 (as assessed by sequence alignment).
BML-260 binding. BML-260 bound DUSP15 at the interface of the A and B chain, distinct from the predicted active site at position 85. n represents technical replicates analyzed by Stu-dent’s t test. […]

The subject of data set [2] is 15-month-old C57BL/6J male mice. Put plainly: Assessment of potential organ toxicity (liver, heart, kidney). In kind it is in vivo, mouse. Set-up: Kidney mass / Liver mass / heart mass / Kidney mass, Average / Liver mass, Average / heart mass, Average: unit not given here. As to conditions: 5 mg/kg IP every 24 h for 6 weeks. The procedure: To assess the effect of BML-260 treatment on the liver, heart and kidney, 15-month-old C57BL/6J male mice were treated as follows: 1) Vehicle (DMSO in PBS pH 7.4 with 5% Tween 80) alone, 2) 5 mg/kg BML-260 (n = 4 per group). BML-260 was administered via IP delivery every 24 h for 6 weeks. The mice were then sacrificed and the liver, kidneys and heart were weighed and photographed.
A) Photographs of the kidneys, liver, and heart after 6 weeks treatment with 5 mg/kg in 15 month-old mice. (n=4) B) Kidney(p=0.4403), liver(0.5545), and heart(0.5349) mass. ns=not statistically significant. n represents biological replicates analyzed by Student’s t test. Error bars represent the standard error of the mean (SEM).
(1 picture or pasted object on this page, not shown here)

Molecules are shown by their SMILES. “And” between values parts separate entries of the source, which are not always exact repeats. Equal values may be shown once. “Also recorded” adds a separate entry of the source.

For `O=C(O)c1ccc(N2C(=O)C(=Cc3ccccc3)SC2=S)cc1` (stereo in doubt) [BML-260], the “inhibitory effect against VHR phosphatase” value in data set [1] is given as “no inhibitory effect”. The IC50 (in general, the point on the concentration scale where inhibition reaches its midpoint) on GST-tagged-DUSP22 is 54 µM. Also, in data set [2], the “kidney, liver and heart appearance and mass” value was “no major difference compared to vehicle-treated mice; also recorded: no gross significant change”. Besides, in data set [2] (individual animals), the Kidney mass was 4.5487 and 5.186 and 4.22 and 4.517; the Liver mass is 49.3264 and 63.6644 and 45.6088 and 64.8958; the heart mass is 3.6875 and 4.058 and 4.981 and 4.532. In data set [2] (n = 4), the “Kidney mass, Average” value is listed as 4.6181; the “Liver mass, Average” value is on record as 55.8738; the “heart mass, Average” value turned out to be 4.315.

(Values after paper PMC12162873, “Modulating phosphatase DUSP22 with BML-260 ameliorates skeletal muscle wasting via Akt independent JNK-FOXO3a repression” (EMBO Molecular Medicine, 2025).)
